Test results reported in US20240050579A1, “HYALURONAN-NIMESULIDE CONJUGATE FOR TREATING LOCALLY ADVANCED OR METASTATIC TUMORS” (Aihol Corporation, priority 2022, published 2024).

Columns and labels:
Assay type in all cases: in vivo
[1] = tested on: CT26 mouse colon carcinoma; assay: Tumor volume / TGI in CT26 mice; settings: 5-FU alone 50 mg/kg IV QW
Procedure: Immunocompetent, female Balb/C […] mice (ages 6-8 weeks) were ordered and received from National Laboratory Animal Center. Animals were housed on irradiated corncob bedding in micro-isolator caging. Fluorescent lighting was provided on a 12-hour cycle under temperature (20-23° C.) and humidity control (30-70%). Rodent feed and autoclaved acidified water (pH 2.5-3) were provided ad libitum.
CT26 is an N-nitroso-N-methylurethane-(NNMU) induced, undifferentiated mouse colon carcinoma cell line. CT26 carcinoma cells were grown in McCoy's 5a culture medium supplemented with 10% (v/v) FBS and 1% PSN antibiotic mixture. The cells were maintained in an incubator with a humidified environment of 5% CO^2 at 37° C. in a 175 cm 2 flask and subcultured 2-3 times each week. On the study day, CT26 cells were thawed and prepared for inoculation into mice. Cells were washed in PBS, counted, and resuspended in cold PBS at concentrations of 2×10^6 viable cells/0.1 ml. […]
Animals were monitored weekly for palpable tumors or any changes in appearance or behavior. Once tumors were palpable, they were measured using calipers. Tumor volume was calculated using the following equation ½(4π/3)(L/2)(W/2)H, where L is the length, W is the width, and H is the height of the tumor. […] Data were expressed as mean±SEM.

[2] = tested on: HT-29 human colon adenocarcinoma cells; assay: Tumor volume / TGI in HT-29 tumor-bearing mice; settings: for TGI (tumor growth inhibition rate): HT-29 mice, 5-FU 50 mg/kg QW
Procedure: (§1) Immunocompromised, Nu/Nu, Female athymic nu/nu (nude) mice (ages 5-6 weeks, LASCO) were purchased from LASCO. Animals were housed in individual HEPA ventilated cages (Innocage® IVC, Innovive USA) housed for stabilization. Fluorescent lighting was provided on a 12-hour cycle under temperature (20-23° C.) and humidity control (30-70%). Rodent feed and water were provided ad libitum.
(§2) HT-29 human colon adenocarcinoma cells (2×10^7) in PBS buffer were implanted subcutaneously on the right flank of each mouse. Once tumors were detectable, palpable and measurable, the primary tumor volumes were measured and recorded every 3 or 4 days. Tumor volume was calculated as ½(4π/3)(L/2)(W/2)H, where L is the length, W is the width, and H is the height of the tumor. […] Subjects were terminated from the study when the tumor volume reached approximately 1500 mm^3 or the body weight loss was greater than 20% (IACUC protocol limits).

[3] = tested on: MDA-MB-231 human breast cancer cells; assay: Tumor volume in MDA-MB-231 tumor-bearing mice; settings: 5-FU alone 30 mg/kg TIW vs vehicle control
Procedure: as §1
as §2, with “MDA-MB-231” for “HT-29”, “breast cancer Cells (5×10^6)” for “colon adenocarcinoma cells (2×10^7)”, “½×L×W^2,” for “½(4π/3)(L/2)(W/2)H,”, “length and” for “length,”, “width.” for “width, and H is the height of the tumor.”

O=c1[nH]cc(F)c(=O)[nH]1 [5-FU, 5-fluorouracil]
TGI rate [1]: approximately 70%
TGI (tumor growth inhibition rate) ([2]; D21): ~60%
TGI (tumor growth inhibition rate) ([2]; D28): ~45%
tumor growth ([2]; HT-29 tumor-bearing mice, 5-FU alone 50 mg/kg QW vs vehicle control): did not reduce tumor growth
tumor growth [3]: did reduce tumor growth
